Data from patent publication US8835466B2, “Synthesis and uses of pyroglutamic acid derivatives” (Prodimed, S.A., priority 2006, dated 2014).

Legend:
[1] = system: KLN 205 cells (lung cell carcinoma); assay: Effect of 9d in combination with Cisplatin on tumour growth, KLN 205 (Example 11); type: in vivo, DBA/2 mice; conditions: for Tumour surface, overall values (Mean) / Tumour surface, overall values (Median) / Tumour volume, overall values (Mean) / Tumour volume, overall values (Median): 9d 250 ng, Cisplatin 65 μg i.p. days 3, 6, 10, 13, 17, 20
Protocol: This was carried out by measuring two perpendicular diameters (d1/d2) with a calliper. These measures were used to obtain both tumour surface and volume: […] Results were expressed as single values and/or as the mean±SD or median from each experimental group. This assay was made in order to check the effect on in vivo tumour growth in mice challenged with KLN 205 cells. Their effect was compared with the combination of Cisplatin plus 9d and/or placebo. KLN 205 is a lung cell carcinoma originated in DBA/2 mouse strain, and therefore syngeneic in mice with DBA/2 genetic background (Kaneko T and […]. Growth characteristics and drug responses of a murine lung carcinoma in vitro and in vivo. Cancer Res. 38: 2084-2090; 1978). KLN 205 cells (CLS, Eppelheim, Germany) were maintained in vitro by serial passages every 3-4 days. […] Louis, Mo., USA) by seeding 5×10^6 cells onto 75 cm^2 culture flasks. Subcultures were carried out by collecting detached cells after treatment with trypsin-EDTA (Sigma, St. Louis, Mo., USA). Tumour cells, collected from 48 hour cultures, were used as source of KLN 205 cells for the studies described below. […] Tumours were established by subcutaneous inoculation in the right hind flank. Mice (DBA/2) were inoculated with 0.2 mL containing 2×10^5 viable KLN 205 cells. The day of subcutaneous inoculation will be considered Day 0 of the test. A case-control study was performed with treated and control mice in order to determine whether differences between placebo, 9d, Cisplatin or 9d+Cisplatin were present. […] The t-test was chosen for being one of the better known parametrical tests.

[2] = system: Lewis lung cells (lung cell carcinoma); assay: Effect of 9d in combination with Cisplatin on tumour growth, Lewis lung (Example 13); type: in vivo, C57BL/6J mice; conditions: for SURFACE Overall values (Mean) / SURFACE Overall values (Median) / VOLUME Overall values (Mean) / VOLUME Overall values (Median): Cisplatin 65 μg, or both
Description: This assay was made in order to check the effect on in vivo tumour growth in mice challenged with Lewis lung cells. Their effect will be compared with the combination of chemotherapeutic agents plus 9d and/or placebo. Lewis Lung is a lung cell carcinoma originated in C57BL/6J mice strain, and therefore syngeneic in mice with C57BL/6J genetic background (Rodrigo Garzón M, Tirapu Fernández de la Cuesta […], Noel […] and […]. Use of Gene Therapy in a Subcutaneous Murine Model of Lung Cancer. Arch Bronconeumology. 42: 526-532; 2006). Lewis lung cells (CLS, Eppelheim, Germany) were maintained in vitro by serial passages every 3-4 days. […] Louis, Mo., USA) by seeding 5×10^6 cells onto 75 cm^2 culture flasks. Subcultures were carried out by collecting detached cells after treatment with trypsin-EDTA (Sigma, St. Louis, Mo., USA). Tumour cells, collected from 48 hour cultures, were used as source of Lewis Lung cells for the studies described below. […] Tumours were established by subcutaneous inoculation in the right hind flank. Mice were inoculated with 0.2 mL containing 2×10^5 viable cells. The day of subcutaneous inoculation will be considered Day 0 of the test. Mice were observed daily and the tumour size recorded twice a week. This was carried out by measuring two perpendicular diameters (d1/d2) with a calliper. These measures were used to obtain both tumour surface and volume: […] Results were expressed as single values and/or as the mean±SD or median from each experimental group. A case-control study was performed with treated and control mice in order to determine whether differences between placebo, 9d, Cisplatin or 9d+Cisplatin were present. The data obtained (tumour surface and volume) were tested for Normal distribution within the groups (Kolmogorov Smirnov test p<0.05). […] The U-test of Mann Withney was chosen for being one of the better known non-parametrical tests, anyway, results for this test are equivalent both to those of Wilcoxon's sum of ranges and Kruskal-Wallis two-groups test. We excluded of the study animals that have undetectable or unscored tumour on 31th day after tumour inoculation. Due to the high dispersion of data, outlayers were excluded of the study.

[3] = day 10 after tumour inoculation
[4] = day 13 after tumour inoculation
[5] = day 17 after tumour inoculation
[6] = day 20 after tumour inoculation
[7] = day 24 after tumour inoculation
[8] = day 27 after tumour inoculation
[9] = day 31 after tumour inoculation
[10] = day 34 after tumour inoculation
[11] = day 38 after tumour inoculation
[12] = 9d 250 ng, day 0 after tumour inoculation
[13] = 9d 250 ng, day 10 after tumour inoculation
[14] = 9d 250 ng, day 13 after tumour inoculation
[15] = 9d 250 ng, day 17 after tumour inoculation
[16] = 9d 250 ng, day 20 after tumour inoculation
[17] = 9d 250 ng, day 24 after tumour inoculation
[18] = 9d 250 ng, day 27 after tumour inoculation
[19] = 9d 250 ng, day 31 after tumour inoculation

## Br.N[C@]1(C[n+]2ccccc2)C[C@H](C(=O)O)NC1=O.[Br-] (single isomer, unassigned; isomer 4) [isomer 4, 3S,5R-1-(3-Amino-5-carboxy-2-oxopyrrolidin-3-ylmethyl)pyridinium bromide hidrobromide]
[1]; day 0 after tumour inoculation
  Tumour surface, overall values (Mean): 0 mm^2
  Tumour surface, overall values (Median): 0 mm^2
  Tumour volume, overall values (Mean): 0 mm^3
  Tumour volume, overall values (Median): 0 mm^3
[1]; [3]
  Tumour surface, overall values (Mean): 5.38 mm^2
  Tumour surface, overall values (Median): 4 mm^2
  Tumour volume, overall values (Mean): 8.81 mm^3
  Tumour volume, overall values (Median): 4 mm^3
[1]; [4]
  Tumour surface, overall values (Mean): 17.25 mm^2
  Tumour surface, overall values (Median): 16 mm^2
  Tumour volume, overall values (Mean): 43.38 mm^3
  Tumour volume, overall values (Median): 32 mm^3
[1]; [5]
  Tumour surface, overall values (Mean): 29.88 mm^2
  Tumour volume, overall values (Mean): 94.56 mm^3
[1]; [6]
  Tumour surface, overall values (Mean): 57.06 mm^2
  Tumour surface, overall values (Median): 36 mm^2
  Tumour volume, overall values (Mean): 246.03 mm^3
  Tumour volume, overall values (Median): 108 mm^3
[1]; [7]
  Tumour surface, overall values (Mean): 81.38 mm^2
  Tumour surface, overall values (Median): 64 mm^2
  Tumour volume, overall values (Mean): 393.25 mm^3
  Tumour volume, overall values (Median): 256 mm^3
[1]; [8]
  Tumour surface, overall values (Mean): 113.5 mm^2
  Tumour surface, overall values (Median): 105.5 mm^2
  Tumour volume, overall values (Mean): 611.75 mm^3
  Tumour volume, overall values (Median): 446.75 mm^3
[1]; [9]
  Tumour surface, overall values (Mean): 135.31 mm^2
  Tumour surface, overall values (Median): 132.5 mm^2
  Tumour volume, overall values (Mean): 777.53 mm^3
  Tumour volume, overall values (Median): 628.75 mm^3
[1]; [10]
  Tumour surface, overall values (Mean): 168.81 mm^2
  Tumour surface, overall values (Median): 170.5 mm^2
  Tumour volume, overall values (Mean): 1068.3 mm^3
  Tumour volume, overall values (Median): 937.75 mm^3
[1]; [11]
  Tumour surface, overall values (Mean): 214.44 mm^2
  Tumour surface, overall values (Median): 227.5 mm^2
  Tumour volume, overall values (Mean): 1504.7 mm^3
  Tumour volume, overall values (Median): 1478.8 mm^3
[1]; either in surface or volume, all days scored after day 31th, t-test
  KLN 205 tumour growth vs. placebo, tendency in words: significant tendency
[1]; t-test, 250 ng i.p.
  Differences in KLN 205 tumour growth rate vs. placebo, in words: not differences
[2]; 9d 250 ng, Cisplatin 65 μg i.p.
  Inhibition of the in vivo growth of Lewis lung tumour in inbred mice, in words: inhibit the in vivo growth
[2]; [12]
  SURFACE Overall values (Mean): 0 mm^2
  SURFACE Overall values (Median): 0 mm^2
  VOLUME Overall values (Mean): 0 mm^3
  VOLUME Overall values (Median): 0 mm^3
[2]; [13]
  SURFACE Overall values (Mean): 2 mm^2
  SURFACE Overall values (Median): 0 mm^2
  VOLUME Overall values (Mean): 2.27 mm^3
  VOLUME Overall values (Median): 0 mm^3
[2]; [14]
  SURFACE Overall values (Mean): 6.47 mm^2
  SURFACE Overall values (Median): 4 mm^2
  VOLUME Overall values (Mean): 12.5 mm^3
  VOLUME Overall values (Median): 4 mm^3
[2]; [15]
  SURFACE Overall values (Mean): 20.13 mm^2
  SURFACE Overall values (Median): 24 mm^2
  VOLUME Overall values (Mean): 52.73 mm^3
  VOLUME Overall values (Median): 48 mm^3
[2]; [16]
  SURFACE Overall values (Mean): 34.33 mm^2
  SURFACE Overall values (Median): 36 mm^2
  VOLUME Overall values (Mean): 112.3 mm^3
  VOLUME Overall values (Median): 108 mm^3
[2]; [17]
  SURFACE Overall values (Mean): 60.6 mm^2
  SURFACE Overall values (Median): 80 mm^2
  VOLUME Overall values (Mean): 253.77 mm^3
  VOLUME Overall values (Median): 320 mm^3
[2]; [18]
  SURFACE Overall values (Mean): 104.8 mm^2
  SURFACE Overall values (Median): 88 mm^2
  VOLUME Overall values (Mean): 557.13 mm^3
  VOLUME Overall values (Median): 364.5 mm^3
[2]; [19]
  SURFACE Overall values (Mean): 141.8 mm^2
  SURFACE Overall values (Median): 130 mm^2
  VOLUME Overall values (Mean): 887.17 mm^3
  VOLUME Overall values (Median): 665.5 mm^3
[2]; either in surface or volume, all days scored after the day 13th
  Differences in Lewis Lung tumour growth rate vs. placebo, statistical significance p (Mann-Whitney U test): < 0.05
